Test results taken from patent US11959929B2, “Method of quantifying lysergic acid diethylamide (LSD) and 2,3-dihydro-3-hydroxy-2-oxo lysergide (O-H-LSD) in human plasma” (Universitatsspital Basel, priority 2020, dated 2024).
Where “and” joins values, the source holds several entries; their conditions need not be identical. Equal values may be shown once.

Experiments:
[1] = Reinjection reproducibility of worked-up plasma samples (overnight at 10° C. in autosampler; 1 week at −20° C.); assay type: physicochemical, human; conditions: for Change in concentration: 1 night at 10° C. in the autosampler vs Baseline; for Change in concentration [%]: 8 days at −20° C. vs Baseline; for Accuracy: single QC replicate
Excerpt: (§1) Each analyte had to be stable in human plasma for at least three freeze-thaw cycles (for repeated sample preparations) and at ambient temperature for at least eight hours (maximal duration of sample preparation). Measured samples should be stable for a second injection when the first analytical run was not valid. The analytes had to be stable in the matrix at the intended storage temperatures and study duration.
(§2) An analyte was considered stable at one of the above tests when no increase or decrease of the analyte concentration of more than 15% for the mean of at least three analyzed QC samples at low, medium and at high concentration was observed.
Worked-up and measured Cal and QC samples (prepared in human plasma) of a valid run were repeatedly analyzed. Reinjection was performed after overnight storage at 10° C. (autosampler) and after 1-week storage at −20° C. The run was checked according to the acceptance criteria for validation runs. The calculated mean values for QC samples were compared between the original and reinjected run.

[2] = Freeze/thaw stability tests in human plasma (three cycles, about −20° C.); assay type: physicochemical; conditions: for Change in concentration [%]: 3 F/T cycles vs Baseline; for Accuracy: single QC replicate
Excerpt: as §1, §2
Seven of each LLOQ, QCLOW, QCMID, QCHIGH, and ULOQ sample in human plasma were stored at about −20° C. for at least 24 hours and thawed unassisted at ambient temperature. When completely thawed, the samples were refrozen for at least 12 hours under the same conditions. The freeze-thaw cycle was repeated two more times. After the third cycle the samples were worked up and analyzed. The concentrations in the frozen and thawed samples were compared with freshly processed QC samples. Concentrations were calculated based on two freshly prepared CALs measured at the beginning and the other at the end of the validation run.

[3] = Clinical application: plasma concentration-time profile of LSD and O-H-LSD after a single oral 5 μg LSD dose in healthy volunteers; assay type: in vivo, human; conditions: three healthy volunteers
Procedure: To examine the application of the developed method, LSD and O-H-LSD concentrations were quantified in plasma samples of three healthy volunteers receiving a single oral dose of 5 μg. This corresponds to a very low LSD dose, used in LSD microdosing clinical trials (Holze et al., 2021a). The study was conducted in accordance with the Declaration of Helsinki and approved by the Medical Ethics Committee of the Academic Hospital of Maastricht and Maastricht University. The use of LSD in humans was authorized by the Dutch Drug Enforcement Administration. All volunteers provided written informed consent prior to study participation. To establish concentration time profiles, blood samples were collected in lithium heparin coated tubes at the following time points: 0, 0.5, 1, 1.5, 2, 3, 4, 6 after treatment. Blood samples were centrifuged, and plasma was frozen at −20° C. until analysis.
The application of the method was assessed by analyzing the PK of LSD and O-H-LSD in three healthy volunteers treated with an oral dose of 5 μg LSD base (FIG. 5). An oral dose of 5 μg LSD base in ethanol (Holze et al., 2021) was administered to three healthy volunteers. Plasma concentrations of LSD and O-H-LSD were quantified before and up to six hours post-treatment. […] Mean values and the standard deviations are illustrated.
The maximal plasma level of LSD and O-H-LSD was on average 178 pg/ml (SD: 30.6 pg/ml) and 10.4 pg/ml (SD: 2.59 pg/ml), respectively. LSD reached Tmax approximately after 1 hour post-treatment, whereas O-H-LSD peaked after 3 hours. The LSD concentrations measured after a dose of only 5 μg were approximately 7 to 18 times higher than the methods limit of quantification. Thus, the PK of LSD could straightforwardly be established also for very low so-called microdoses (Kuypers et al., 2019). In the case of O-H-LSD, a larger amount of plasma sample was required to determine the plasma concentration time profile after a dose of 5 μg. Three times more plasma was utilized (150 instead of 50 μl), which was extracted as outlined above using however three-fold more acetonitrile for the extraction. Sensitivity was increased by evaporating the extract and reconstituting the residue in a mixture of 150 μl of mobile phase A and mobile phase B (9/1 v/v). […] In future, it will also be considered to inject a larger amount of extract, which is in a first step retained and concentrated on a trapping column. In a second step, the direction of the flow is inverted and so that the sample can be loaded and eluted on the analytical column. This column switching procedure, will increase the sensitivity in the event that the sample can be retained on the trap column. Importantly, the time-consuming solvent evaporation step can thereby be avoided.

[4] = LLOQ: 10 pg/ml, reinjection after 8 days at −20° C.
[5] = QCHIGH: 1000 pg/ml, reinjection after 8 days at −20° C.
[6] = QCLOW: 25 pg/ml, reinjection after 8 days at −20° C.
[7] = QCMID: 100 pg/ml, reinjection after 8 days at −20° C.
[8] = ULOQ: 10000 pg/ml, reinjection after 8 days at −20° C.
[9] = QCHIGH: 1000 pg/ml, 3 F/T cycles
[10] = ULOQ: 10000 pg/ml, 3 F/T cycles

CCN(CC)C(=O)[C@@H]1C=C2c3cccc4[nH]cc(c34)C[C@H]2N(C)C1 [LSD, Lysergic acid diethylamide]
Change in concentration ([1]; LLOQ: 10 pg/ml): 1.09% | Change in concentration ([1]; QCHIGH: 1000 pg/ml): −0.451% | Change in concentration ([1]; QCLOW: 25 pg/ml): −0.0195% | Change in concentration ([1]; QCMID: 100 pg/ml): 2.3% | Change in concentration ([1]; ULOQ: 10000 pg/ml): 0.383% | Change in concentration [%] ([1]; LLOQ: 10 pg/ml): −1.26% | Accuracy, Intra-assay Mean ([1]; LLOQ: 10 pg/ml, Baseline): 96.6% | Accuracy ([1]; LLOQ: 10 pg/ml, Baseline): 92.5% and 95% and 76.3* % and 91.3% and 98% and 109% and 93.7% | Accuracy, Intra-assay Mean [1, 4]: 95.4% | Accuracy [1, 4]: 104% and 97.5% and 86% and 95.3% and 100% and 94.7% and 90.3% | Change in concentration [%] ([1]; QCHIGH: 1000 pg/ml): −0.333% | Accuracy, Intra-assay Mean ([1]; QCHIGH: 1000 pg/ml, Baseline): 100% | Accuracy ([1]; QCHIGH: 1000 pg/ml, Baseline): 96.5% and 99.5% and 97.7% and 101% (3×) and 103% | Accuracy, Intra-assay Mean [1, 5]: 99.7% | Accuracy [1, 5]: 101% (2×) and 98.8% and 98.9% and 99.9% and 99.1% and 99.6% | Change in concentration [%] ([1]; QCLOW: 25 pg/ml): −0.948% | Accuracy, Intra-assay Mean ([1]; QCLOW: 25 pg/ml, Baseline): 101% | Accuracy ([1]; QCLOW: 25 pg/ml, Baseline): 101% (2×) and 104% and 97.9% and 102% and 103% and 99.5% | Accuracy, Intra-assay Mean [1, 6]: 100% | Accuracy [1, 6]: 95.5% and 102% and 107% and 96.4% and 106% and 92% and 103% | Change in concentration [%] ([1]; QCMID: 100 pg/ml): 1.02% | Accuracy, Intra-assay Mean ([1]; QCMID: 100 pg/ml, Baseline): 101% | Accuracy ([1]; QCMID: 100 pg/ml, Baseline): 101% (4×) and 102% and 96.6% and 107% | Accuracy, Intra-assay Mean [1, 7]: 102% | Accuracy [1, 7]: 101% and 103% (2×) and 102% (2×) and 99.9% and 105% | Change in concentration [%] ([1]; ULOQ: 10000 pg/ml): −1.85% | Accuracy, Intra-assay Mean ([1]; ULOQ: 10000 pg/ml, Baseline): 97.2% | Accuracy ([1]; ULOQ: 10000 pg/ml, Baseline): 97.9% and 97.3% and 98.1% and 96.5% and 97.1% and 98.7% and 95% | Accuracy, Intra-assay Mean [1, 8]: 95.4% | Accuracy [1, 8]: 97.4% and 96.6% and 95.2% and 92.9% and 95.1% and 96.4% and 94.2% | Deviations of the means of the QCs of the two runs (reinjection) after 8 days at −20° C. ([1]; worked-up human plasma samples, 8 days at −20° C.): −1.85% to +1.02 | Deviations of the means of the QCs of the two runs (reinjection) after overnight storage at 10° C. ([1]; worked-up human plasma samples, overnight at 10° C. in the autosampler): −0.451% to +2.3 | Accuracy, Intra-assay Mean ([2]; LLOQ: 10 pg/ml, 3 F/T cycles): 83.7% | Change in concentration [%] ([2]; LLOQ: 10 pg/ml): −8.83% | Accuracy ([2]; LLOQ: 10 pg/ml, 3 F/T cycles): 81.9% and 75.0* % and 81.7% and 84.7% and 79.8* % and 81.8% and 88.5% | Accuracy, Intra-assay Mean ([2]; LLOQ: 10 pg/ml, Baseline): 91.8% | Accuracy ([2]; LLOQ: 10 pg/ml, Baseline): 96.6% and 95.7% and 83.2% | Accuracy, Intra-assay Mean [2, 9]: 96.5% | Change in concentration [%] ([2]; QCHIGH: 1000 pg/ml): 0.647% | Accuracy [2, 9]: 96.4% and 96.2% (2×) and 96.9% and 96.7% and 94.6% and 98.3% | Accuracy, Intra-assay Mean ([2]; QCHIGH: 1000 pg/ml, Baseline): 95.9% | Accuracy ([2]; QCHIGH: 1000 pg/ml, Baseline): 96.9% and 96.4% and 94.3% | Accuracy, Intra-assay Mean ([2]; QCLOW: 25 pg/ml, 3 F/T cycles): 96.7% | Change in concentration [%] ([2]; QCLOW: 25 pg/ml): 4.44% | Accuracy ([2]; QCLOW: 25 pg/ml, 3 F/T cycles): 95.2% and 102% and 101% and 91.5% and 98.8% and 93.6% and 94.9% | Accuracy, Intra-assay Mean ([2]; QCLOW: 25 pg/ml, Baseline): 92.6% | Accuracy ([2]; QCLOW: 25 pg/ml, Baseline): 94% and 93.4% and 90.5% | Accuracy, Intra-assay Mean ([2]; QCMID: 100 pg/ml, 3 F/T cycles): 98.5% | Change in concentration [%] ([2]; QCMID: 100 pg/ml): 1.03% | Accuracy ([2]; QCMID: 100 pg/ml, 3 F/T cycles): 99.2% and 97.9% and 99.5% and 99.6% and 94.9% and 98% and 100% | Accuracy, Intra-assay Mean ([2]; QCMID: 100 pg/ml, Baseline): 97.5% | Accuracy ([2]; QCMID: 100 pg/ml, Baseline): 101% and 94.3% and 97.4% | Accuracy, Intra-assay Mean [2, 10]: 95.7% | Change in concentration [%] ([2]; ULOQ: 10000 pg/ml): −0.9% | Accuracy [2, 10]: 97.8% and 94.3% and 94% and 96.4% and 99.2% and 93% and 95.2% | Accuracy, Intra-assay Mean ([2]; ULOQ: 10000 pg/ml, Baseline): 96.6% | Accuracy ([2]; ULOQ: 10000 pg/ml, Baseline): 94.7% and 94.9% and 100% | Change in plasma concentration following three freeze/thaw cycles ([2]; human plasma QC samples, −20° C., three freeze/thaw cycles, vs freshly processed QC): ≤ 8.83% | Tmax ([3]; human, 5 ug, single oral dose of 5 μg LSD base, read-out: Tmax (time of peak plasma level post-treatment)): ~1 h | maximal plasma level (average) ([3]; single oral dose of 5 μg LSD base in ethanol, LC-MS/MS, O-H-LSD measured as metabolite using 150 μl plasma): 178 pg/mL
